For ten compounds, IC50 results are on record in patent US20230139171A1 (SITA Information Networking Computing UK Limited, priority 2019, published 2023).

Holding throughout (assay type): cell-based
One assay has as its target T1, human TLR8 (Homo sapiens, UniProt Q9NR97).
T1 construct: host or cells: HEK-Blue cells
T1 sequence (Q9NR97 27-1041): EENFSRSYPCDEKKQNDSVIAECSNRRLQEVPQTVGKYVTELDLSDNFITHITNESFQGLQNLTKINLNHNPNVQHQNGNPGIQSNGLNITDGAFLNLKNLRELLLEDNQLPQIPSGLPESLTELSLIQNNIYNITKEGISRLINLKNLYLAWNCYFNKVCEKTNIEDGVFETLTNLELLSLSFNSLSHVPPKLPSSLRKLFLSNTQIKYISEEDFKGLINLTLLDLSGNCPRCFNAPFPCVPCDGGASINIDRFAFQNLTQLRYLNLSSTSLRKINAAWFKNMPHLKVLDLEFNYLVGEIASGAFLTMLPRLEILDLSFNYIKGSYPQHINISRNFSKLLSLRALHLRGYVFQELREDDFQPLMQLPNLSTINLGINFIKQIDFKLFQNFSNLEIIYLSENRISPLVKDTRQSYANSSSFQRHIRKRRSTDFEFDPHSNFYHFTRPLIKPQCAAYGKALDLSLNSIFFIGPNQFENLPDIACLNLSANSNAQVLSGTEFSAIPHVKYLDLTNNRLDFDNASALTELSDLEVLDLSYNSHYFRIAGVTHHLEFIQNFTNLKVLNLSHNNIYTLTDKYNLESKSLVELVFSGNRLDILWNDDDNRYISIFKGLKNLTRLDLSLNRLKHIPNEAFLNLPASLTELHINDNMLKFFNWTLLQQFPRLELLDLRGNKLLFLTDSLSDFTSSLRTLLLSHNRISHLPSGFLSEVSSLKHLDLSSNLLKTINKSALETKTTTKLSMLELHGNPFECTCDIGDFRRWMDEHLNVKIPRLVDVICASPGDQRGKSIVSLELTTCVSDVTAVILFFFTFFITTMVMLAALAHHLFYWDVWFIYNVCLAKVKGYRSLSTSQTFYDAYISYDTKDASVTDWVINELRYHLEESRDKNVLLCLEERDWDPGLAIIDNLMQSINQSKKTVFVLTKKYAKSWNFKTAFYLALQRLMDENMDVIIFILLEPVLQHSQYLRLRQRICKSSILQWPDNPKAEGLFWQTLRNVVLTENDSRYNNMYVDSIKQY
The experiment in a line: TLR8 inhibition reporter assay (HEK-Blue cells, SEAP reporter, R848 stimulation). To be noted: HEK-Blue cells overexpressing human TLR8, SEAP reporter, R848 15.9 μM; read-out: TLR8 IC50. An outline of the steps:
(§1)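 Screening used HEK-Blue cells overexpressing one human TLR (7, 8 or 9) and an IFN-β minimal promoter–NF-κB/AP-1 SEAP construct. Stimulation lasted 22 h at 37 °C with receptor-specific agonist: gardiquimod, R848 or ODN2006 at 7.5 μM, 15.9 μM and 5 nM.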
A general note: Reporter assays use an easily measured gene product as a stand-in for the process of interest.

For a further assay, the target named is T2, human TLR9 (Homo sapiens, UniProt Q9NR96).
T2 construct: host or cells: HEK-Blue cells
T2 sequence (Q9NR96 26-1032): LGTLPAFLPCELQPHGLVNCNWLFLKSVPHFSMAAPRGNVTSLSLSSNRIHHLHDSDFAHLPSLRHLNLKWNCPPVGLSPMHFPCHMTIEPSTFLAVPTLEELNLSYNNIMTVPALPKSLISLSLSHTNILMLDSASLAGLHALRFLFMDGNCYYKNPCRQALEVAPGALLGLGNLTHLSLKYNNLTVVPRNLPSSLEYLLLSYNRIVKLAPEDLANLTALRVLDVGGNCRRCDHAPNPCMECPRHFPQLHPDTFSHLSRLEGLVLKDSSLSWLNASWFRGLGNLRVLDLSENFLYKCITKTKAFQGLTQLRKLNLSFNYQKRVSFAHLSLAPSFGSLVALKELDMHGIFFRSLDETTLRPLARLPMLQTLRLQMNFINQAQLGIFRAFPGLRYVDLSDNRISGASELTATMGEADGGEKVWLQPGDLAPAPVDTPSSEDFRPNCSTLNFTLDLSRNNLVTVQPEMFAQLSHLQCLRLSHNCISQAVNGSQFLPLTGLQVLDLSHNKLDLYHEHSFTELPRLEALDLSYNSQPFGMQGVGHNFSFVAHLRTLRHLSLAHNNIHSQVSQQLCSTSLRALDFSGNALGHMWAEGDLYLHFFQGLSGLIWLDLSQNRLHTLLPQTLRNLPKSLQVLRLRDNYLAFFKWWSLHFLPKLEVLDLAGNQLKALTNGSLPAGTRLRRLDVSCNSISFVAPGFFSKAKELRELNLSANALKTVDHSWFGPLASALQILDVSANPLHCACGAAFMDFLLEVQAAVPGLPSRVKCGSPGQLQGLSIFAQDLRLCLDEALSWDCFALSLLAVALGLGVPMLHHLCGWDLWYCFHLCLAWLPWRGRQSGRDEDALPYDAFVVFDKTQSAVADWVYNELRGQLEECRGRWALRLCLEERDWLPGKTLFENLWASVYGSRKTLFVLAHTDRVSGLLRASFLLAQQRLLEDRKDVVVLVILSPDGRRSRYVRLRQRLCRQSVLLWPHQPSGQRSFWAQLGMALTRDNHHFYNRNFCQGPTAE
The experiment in a line: TLR9 inhibition reporter assay (HEK-Blue cells, SEAP reporter, ODN2006 stimulation). The following applies: HEK-Blue cells overexpressing human TLR9, SEAP reporter, ODN2006 5 nM. An outline of the steps:
as §1

For a further assay, the target named is T3, human TLR7 (Homo sapiens, UniProt Q9NYK1).
T3 construct: host or cells: HEK-Blue cells
T3 sequence (Q9NYK1 27-1049): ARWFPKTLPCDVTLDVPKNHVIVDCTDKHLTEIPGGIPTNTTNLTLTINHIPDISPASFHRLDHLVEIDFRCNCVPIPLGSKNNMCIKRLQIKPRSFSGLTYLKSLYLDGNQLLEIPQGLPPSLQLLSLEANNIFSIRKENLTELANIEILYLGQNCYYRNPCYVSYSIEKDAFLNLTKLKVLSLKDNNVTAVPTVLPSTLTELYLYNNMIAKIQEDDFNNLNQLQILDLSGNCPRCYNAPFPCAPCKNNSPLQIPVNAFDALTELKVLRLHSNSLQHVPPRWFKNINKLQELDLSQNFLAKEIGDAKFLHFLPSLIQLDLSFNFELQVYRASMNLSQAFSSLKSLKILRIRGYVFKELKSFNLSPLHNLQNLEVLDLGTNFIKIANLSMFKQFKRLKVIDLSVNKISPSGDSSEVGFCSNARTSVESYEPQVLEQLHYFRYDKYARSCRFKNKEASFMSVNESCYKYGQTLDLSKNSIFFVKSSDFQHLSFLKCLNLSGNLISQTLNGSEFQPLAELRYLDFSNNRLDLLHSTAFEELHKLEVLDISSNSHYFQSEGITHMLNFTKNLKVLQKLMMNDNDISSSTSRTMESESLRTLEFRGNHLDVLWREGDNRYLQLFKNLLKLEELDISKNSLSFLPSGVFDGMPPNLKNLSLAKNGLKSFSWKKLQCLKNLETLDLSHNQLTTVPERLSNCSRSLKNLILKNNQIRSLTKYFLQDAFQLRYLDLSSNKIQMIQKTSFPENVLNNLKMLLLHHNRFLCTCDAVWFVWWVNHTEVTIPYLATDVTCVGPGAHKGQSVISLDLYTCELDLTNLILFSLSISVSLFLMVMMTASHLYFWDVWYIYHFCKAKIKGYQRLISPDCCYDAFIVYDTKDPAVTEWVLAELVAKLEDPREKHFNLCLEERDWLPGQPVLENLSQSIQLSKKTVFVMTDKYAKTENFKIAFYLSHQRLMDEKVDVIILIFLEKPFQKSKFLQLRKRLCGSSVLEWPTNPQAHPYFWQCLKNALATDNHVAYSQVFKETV
Description: TLR7 inhibition reporter assay (HEK-Blue cells, SEAP reporter, gardiquimod stimulation). To be noted: HEK-Blue cells overexpressing human TLR7, SEAP reporter, gardiquimod 7.5 μM; read-out: TLR7 IC50. An outline of the steps:
as §1

As a reminder, the IC50 is the midpoint of a concentration-inhibition curve. On to `CCN(C)C1CCC(c2nc3c(C(C)C)c(-c4cc(C)c5ncnn5c4)[nH]c3s2)CC1` (single isomer, unassigned) [Example 132, N-ethyl-4-(6-isopropyl-5-(8-methyl-[1,2,4]triazolo[1,5-a]pyridin-6-yl)-4H-pyrrolo[3,2-d]thiazol-2-yl)-N-methylcyclohexan-1-amine], for which the IC50 is 2.73 nM on human TLR8, 2140 nM against human TLR9 and 0.36 nM on human TLR7.
In the same order, the values of `Cc1cc(-c2[nH]c3sc(C4CCC(NCC5(C)COC5)CC4)nc3c2C(C)C)cn2ncnc12` (single isomer, unassigned) [Example 134, 4-(6-isopropyl-5-(8-methyl-[1,2,4]triazolo[1,5-a]pyridin-6-yl)-4H-pyrrolo[3,2-d]thiazol-2-yl)-N-((3-methyloxetan-3-yl)methyl)cyclohexan-1-amine] are 1.28 nM, 16100 nM and 1.23 nM.
For the compound `Cc1cc(-c2[nH]c3sc(C4CCC(NCC5(C)COC5)CC4)nc3c2C(C)C)cn2ncnc12` (single isomer, unassigned) [Example 135, 4-(6-isopropyl-5-(8-methyl-[1,2,4]triazolo[1,5-a]pyridin-6-yl)-4H-pyrrolo[3,2-d]thiazol-2-yl)-N-((3-methyloxetan-3-yl)methyl)cyclohexan-1-amine], the IC50 on human TLR8 came out at 38.9 nM; against human TLR9, 22400 nM; on human TLR7 it was 6.8 nM.
In the same order, the values of `Cc1cc(-c2[nH]c3sc(C4CCC(N5CC6(COC6)C5)CC4)nc3c2C(C)C)cn2ncnc12` (single isomer, unassigned) [Example 136, 6-(4-(6-isopropyl-5-(8-methyl-[1,2,4]triazolo[1,5-a]pyridin-6-yl)-4H-pyrrolo[3,2-d]thiazol-2-yl)cyclohexyl)-2-oxa-6-azaspiro[3.3]heptane] are 4.36 nM, 42800 nM and 1.69 nM.
In the same order, the values of `Cc1cc(-c2[nH]c3sc(C4CCC(N5CC6(COC6)C5)CC4)nc3c2C(C)C)cn2ncnc12` (single isomer, unassigned) [Example 137, 6-(4-(6-isopropyl-5-(8-methyl-[1,2,4]triazolo[1,5-a]pyridin-6-yl)-4H-pyrrolo[3,2-d]thiazol-2-yl)cyclohexyl)-2-oxa-6-azaspiro[3.3]heptane] are 40.8 nM, 6730 nM and 3.4 nM.
In the same order, the values of `Cc1cc(-c2[nH]c3sc(C4CCC(NC56CC(C5)C6)CC4)nc3c2C(C)C)cn2ncnc12` (single isomer, unassigned) [Example 138, N-(4-(6-isopropyl-5-(8-methyl-[1,2,4]triazolo[1,5-a]pyridin-6-yl)-4H-pyrrolo[3,2-d]thiazol-2-yl)cyclohexyl)bicyclo[1.1.1]pentan-1-amine] are 3.96 nM, 14800 nM and 0.93 nM.
On to `Cc1cc(-c2[nH]c3sc(C4CCC(NC56CC(C5)C6)CC4)nc3c2C(C)C)cn2ncnc12` (single isomer, unassigned) [Example 139, N-(4-(6-isopropyl-5-(8-methyl-[1,2,4]triazolo[1,5-a]pyridin-6-yl)-4H-pyrrolo[3,2-d]thiazol-2-yl)cyclohexyl)bicyclo[1.1.1]pentan-1-amine], for which the IC50 worked out at 26.3 nM at human TLR8, 17500 nM on human TLR9 and 4.96 nM at human TLR7.
`Cc1cc(-c2[nH]c3sc(C4CCC(NCC(C)(C)O)CC4)nc3c2C(C)C)cn2ncnc12` (single isomer, unassigned) [Example 140, 1-((4-(6-isopropyl-5-(8-methyl-[1,2,4]triazolo[1,5-a]pyridin-6-yl)-4H-pyrrolo[3,2-d]thiazol-2-yl)cyclohexyl)amino)-2-methylpropan-2-ol]: the IC50 at human TLR8 is 0.89 nM; against human TLR9, 10400 nM; on human TLR7 it was 0.59 nM.
In the same order, the values of `Cc1cc(-c2[nH]c3sc(C4CCC(NCC(C)(C)O)CC4)nc3c2C(C)C)cn2ncnc12` (single isomer, unassigned) [Example 141, 1-((4-(6-isopropyl-5-(8-methyl-[1,2,4]triazolo[1,5-a]pyridin-6-yl)-4H-pyrrolo[3,2-d]thiazol-2-yl)cyclohexyl)amino)-2-methylpropan-2-ol] are 13.5 nM, 12800 nM and 3.03 nM.
Turning to `Cc1cc(-c2[nH]c3sc(C4CCC(NCC5(CO)CC5)CC4)nc3c2C(C)C)cn2ncnc12` (single isomer, unassigned) [Example 142, (1-(((4-(6-isopropyl-5-(8-methyl-[1,2,4]triazolo[1,5-a]pyridin-6-yl)-4H-pyrrolo[3,2-d]thiazol-2-yl)cyclohexyl)amino)methyl)cyclopropyl)methanol], the half-maximal inhibitory concentration (IC50) at human TLR8 came to 2.7 nM; at human TLR9, 6970 nM; on human TLR7, 2.08 nM.
